In data set [1] the test system is CeDAT2 (Caenorhabditis elegans). It is filed as cell-based, C. elegans. The settings on record: radiolabeled substrates each at 50 nm, pCeDAT2.
Data set [2] deals with T1, CeDAT1 (Caenorhabditis elegans, UniProt Q03614).
T1 sequence (Q03614 20-615): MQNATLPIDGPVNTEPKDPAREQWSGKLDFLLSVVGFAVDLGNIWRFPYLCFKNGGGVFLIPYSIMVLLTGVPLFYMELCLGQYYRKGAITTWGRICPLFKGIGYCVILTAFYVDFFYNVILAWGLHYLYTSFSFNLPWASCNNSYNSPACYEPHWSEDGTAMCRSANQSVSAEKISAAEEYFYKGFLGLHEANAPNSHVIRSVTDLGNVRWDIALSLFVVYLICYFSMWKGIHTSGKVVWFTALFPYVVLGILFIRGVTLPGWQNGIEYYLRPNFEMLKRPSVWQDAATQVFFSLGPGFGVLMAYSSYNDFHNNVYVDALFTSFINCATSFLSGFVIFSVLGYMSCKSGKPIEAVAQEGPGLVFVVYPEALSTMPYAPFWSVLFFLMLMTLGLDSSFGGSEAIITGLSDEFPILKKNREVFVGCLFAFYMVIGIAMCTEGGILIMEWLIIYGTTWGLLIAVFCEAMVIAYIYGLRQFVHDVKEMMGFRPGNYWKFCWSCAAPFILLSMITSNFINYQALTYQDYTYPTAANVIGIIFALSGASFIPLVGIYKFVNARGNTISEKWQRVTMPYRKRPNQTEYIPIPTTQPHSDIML
Type of data set: cell-based, C. elegans. The settings on record: radiolabeled substrates each at 50 nm, pCeDAT1.

Data set [3] deals with T1, CeDAT1. Briefly: cell-based. The arrangement: species or system C. elegans.
In data set [4] the target is T1, CeDAT1. Briefly: Saturation kinetics of catecholamine transport in pCeDAT1 transfected HeLa cells. Type of data set: cell-based, C. elegans. The note with it: radiolabeled substrate.
Substrate in data set [5]: NC[C@H](O)c1ccc(O)c(O)c1
Briefly: cells, lysate or membranes. The settings on record: 37.0 °C.

CeDAT2 (Caenorhabditis elegans), sequence (Q03614 whole entry): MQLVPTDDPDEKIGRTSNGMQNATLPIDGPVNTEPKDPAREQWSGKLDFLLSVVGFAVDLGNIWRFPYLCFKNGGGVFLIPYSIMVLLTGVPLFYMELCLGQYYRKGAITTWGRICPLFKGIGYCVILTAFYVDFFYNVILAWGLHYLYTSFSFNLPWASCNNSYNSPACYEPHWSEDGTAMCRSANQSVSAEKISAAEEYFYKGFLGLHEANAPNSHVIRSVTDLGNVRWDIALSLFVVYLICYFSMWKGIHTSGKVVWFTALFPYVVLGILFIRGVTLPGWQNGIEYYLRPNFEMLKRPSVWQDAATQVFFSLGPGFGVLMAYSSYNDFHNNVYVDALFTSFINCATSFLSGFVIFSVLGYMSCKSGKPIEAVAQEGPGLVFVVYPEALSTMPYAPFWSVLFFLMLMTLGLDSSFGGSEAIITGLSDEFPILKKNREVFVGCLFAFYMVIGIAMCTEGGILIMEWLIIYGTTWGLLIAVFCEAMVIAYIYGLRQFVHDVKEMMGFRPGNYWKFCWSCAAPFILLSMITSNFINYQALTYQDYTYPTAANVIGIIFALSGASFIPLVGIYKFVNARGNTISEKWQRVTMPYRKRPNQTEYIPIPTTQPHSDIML

On to `NCCc1c[nH]c2ccc(O)cc12` [5HT, Serotonin], for which the results for the “Transport of radiolabeled substrate” value (in data set [1]; at CeDAT1 [2]) were “transported only at very low levels” and “little or no transport”, respectively.

By Ki is commonly meant a measure of affinity in units of concentration, obtained from inhibition or displacement. `NCCc1ccc(O)c(O)c1` [DA, Dopamine]: the “Extent of transport relative to NE” value at CeDAT1 [2] is reported as ~2 fold. Further, the affinity at CeDAT1 [3] corresponds to a Ki of 146 nM. Besides, the “Potency as inhibitor of transport relative to L-NE” value on CeDAT1 [3] (pCeDAT1, HeLa cells, DA versus L-NE) was ~10 fold. Besides, at CeDAT1 [4], the Vmax of transport worked out at 0.6 pmol/10^6 cells/min. With `CNC[C@H](O)c1ccc(O)c(O)c1` [Epi], the results for the “Transport of radiolabeled substrate” value (in data set [1]; at CeDAT1 [2]) were “transported only at very low levels” and “little or no transport”, respectively. For the molecule `Fc1ccc(C(OCCN2CCN(CCCc3ccccc3)CC2)c2ccc(F)cc2)cc1` [GBR12909], the affinity on CeDAT1 [3] corresponds to a Ki of 70 nM. On to `NC[C@H](O)c1ccc(O)c(O)c1` [NE, Norepinephrine], for which the Vmax of transport on CeDAT1 [4] turned out to be 0.46 pmol/10^6 cells/min. The molecule `NCCc1ccc(O)cc1` [Tyramine] returned a Ki on CeDAT1 [3] of 827 nM. On the same count and under the same terms, the figure for `COC(=O)[C@H]1[C@@H](OC(=O)c2ccccc2)C[C@@H]2CC[C@H]1N2C` [cocaine] is 3500 nM; for `OC1(c2ccc(Cl)cc2)c2ccccc2C2=NCCN21` (stereo not drawn) [mazindol] it is 8 nM. `CNCCC(Oc1ccccc1OC)c1ccccc1` (stereo not drawn) [nisoxetine] displayed a Ki at CeDAT1 [3] of 3 nM.

B1: CeDAT1 (Caenorhabditis elegans) (protein)
chain: T1 sequence (Q03614 20-615)
As usually defined, the Km is the concentration of substrate that gives half-maximal velocity. Take B1: in data set [5], the Km was determined as 4.1 µM.

The values are drawn from patent publication US6596512B1 (American Cyanamid Company, priority 1997, dated 2003).
